Assay results from US10086039B2, “Lamin A, an activator of longevity/anti-aging SIRT1 protein” (THE UNIVERSITY OF HONG KONG, priority 2012, dated 2018).

Assays:
[1] = biological target: T1, rhSIRT1 binding to rhLamin A (Homo sapiens, UniProt Q96EB6); assay: Pull-down of rhSIRT1 with rhLamin A in test tube (anti-lamin A immunoprecipitation); details: in the test tube, co-immunoprecipitation
T1 construct: purchased Diatheva, Italy (rhLamin A)
T1 sequence (Q96EB6 1-747): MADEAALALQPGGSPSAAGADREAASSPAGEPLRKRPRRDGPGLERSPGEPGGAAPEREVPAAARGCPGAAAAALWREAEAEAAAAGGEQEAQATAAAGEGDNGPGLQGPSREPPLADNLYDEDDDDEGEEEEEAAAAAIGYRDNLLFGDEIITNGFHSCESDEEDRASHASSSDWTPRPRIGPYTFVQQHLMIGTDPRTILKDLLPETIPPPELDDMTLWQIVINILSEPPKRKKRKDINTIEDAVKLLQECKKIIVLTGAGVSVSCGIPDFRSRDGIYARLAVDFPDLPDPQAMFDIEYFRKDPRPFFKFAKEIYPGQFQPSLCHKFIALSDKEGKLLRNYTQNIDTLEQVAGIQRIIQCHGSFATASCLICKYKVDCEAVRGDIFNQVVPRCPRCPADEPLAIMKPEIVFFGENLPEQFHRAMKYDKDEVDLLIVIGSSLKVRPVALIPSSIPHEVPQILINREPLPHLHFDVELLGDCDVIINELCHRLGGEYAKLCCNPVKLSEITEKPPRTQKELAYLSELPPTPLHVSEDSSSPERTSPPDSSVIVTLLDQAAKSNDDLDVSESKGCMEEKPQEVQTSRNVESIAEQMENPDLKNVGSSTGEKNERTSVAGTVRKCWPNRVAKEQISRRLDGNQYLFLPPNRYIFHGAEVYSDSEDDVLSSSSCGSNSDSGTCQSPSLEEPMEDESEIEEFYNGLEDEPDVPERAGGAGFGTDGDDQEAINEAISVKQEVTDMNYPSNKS
T1 sequence (P02545 1-664 partner): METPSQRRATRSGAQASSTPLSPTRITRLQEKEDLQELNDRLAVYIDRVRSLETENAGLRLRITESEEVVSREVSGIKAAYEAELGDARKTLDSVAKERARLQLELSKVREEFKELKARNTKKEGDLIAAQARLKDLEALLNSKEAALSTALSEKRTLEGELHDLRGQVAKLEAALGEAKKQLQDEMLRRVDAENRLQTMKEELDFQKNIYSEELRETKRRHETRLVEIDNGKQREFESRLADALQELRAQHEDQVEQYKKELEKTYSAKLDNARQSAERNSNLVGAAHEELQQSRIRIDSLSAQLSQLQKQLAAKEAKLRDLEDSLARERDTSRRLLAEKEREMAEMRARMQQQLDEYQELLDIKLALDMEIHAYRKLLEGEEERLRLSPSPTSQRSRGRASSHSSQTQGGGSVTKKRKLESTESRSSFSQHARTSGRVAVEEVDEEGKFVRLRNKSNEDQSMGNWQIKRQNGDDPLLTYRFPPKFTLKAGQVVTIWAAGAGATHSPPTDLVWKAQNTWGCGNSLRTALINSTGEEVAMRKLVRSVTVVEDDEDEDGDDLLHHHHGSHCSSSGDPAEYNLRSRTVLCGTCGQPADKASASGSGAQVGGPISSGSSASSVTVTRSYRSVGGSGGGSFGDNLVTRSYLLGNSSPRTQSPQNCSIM
Procedure: For co-immunoprecipitation, cells were lysed into pre-chilled RIPA buffer containing 300 mM or 500 mM NaCl and protease inhibitors. Primary antibodies or appropriate control IgGs were added to the lysate and incubated for 2 h on a rocking platform at 4° C. before Agarose beads were added and incubated O/N. The beads were washed twice with RIPA buffer, resuspended into Laemmli buffer and boiled, and protein suspension was collected by centrifugation and stored for further analysis.
Consistently, ectopic EGFP-SIRT1 and DsRed-lamin A co-existed in the nuclear interior (FIG. 1D). This interaction seems specific to nuclear SIRT1 as neither cytoplasmic SIRT1 nor mitochondrial SIRT5 was detected in the anti GFP-lamin A immunoprecipitates (FIG. 6C). In addition, SIRT1 physically interacts with lamin A as recombinant human SIRT1 (rhSIRT1) was pulled down by recombinant human lamin A (rhLamin A) in a test tube (FIG. 1E).

Gadd45α and catalase = Gadd45α and catalase expression in Zmpste24−/− BMSCs (Western blotting); format: cell-based, mouse
Procedure: (FIG. 4A) Resveratrol (10 μM) increased colony-forming capacity of Zmpste24^−/− BMSCs. Colony-forming assay was performed on freshly isolated bone marrow cells in 10 cm dishes in the presence and absence of resveratrol. (FIG. 4B) Colony number counting. […] Data represent mean±SEM, n=4. *P<0.05, RSV Vs Vehicle. (FIG. 4C) Left, level of prelamin A pull down by anti SIRT1 immunoprecipitates in BMSCs treated or untreated with resveratrol (2 μM) was determined by Immunoblotting; right, level of acetylated Foxo3a in resveratrol was assessed by Immunoblotting. (FIG. 4D) Levels of catalase and Gadd45α in SIRT1 or scramble siRNA treated Zmpste24^−/− BMSCs in the presence or absence of resveratrol (10 μM) determined by Western blotting. […] (FIG. 4F) Quantification of (FIG. 4E). […] (FIG. 4gG Levels of H3K9ac and IR-induced-H2AX with or without ectopic SIRT1 in wild-type and Zmpste24 null BMSCs were assessed by Western blotting. (FIG. 4H) Ectopic SIRT1 increased the colony-forming capacity of Zmpste24^−/− and wild-type BMSCs. Colony-forming assay was performed on freshly isolated cells in 6 cm dishes. (FIG. 4I) Quantification of (FIG. 4H). Data represent mean±SEM, n=5. *P<0.05, SIRT1 Vs Mock.
Western blotting was performed as described previously (Liu et al., 2005). Relative band intensity was measured by IMAGE J® and normalized to corresponding wild-type or untreated controls as indicated.

Zmpste24−/− mice = assay: Micro-CT of trabecular bone and bone mineral density in Zmpste24−/− mice; format: in vivo, mouse; details: resveratrol 20 μg/ml in drinking water, 4 months
Procedure: Zmpste24^−/− mice have been described previously (Pendas et al., 2002). Mouse experimentation was performed in accordance with the guidelines of the Committee on the Use of Live Animals in Teaching and Research (CULATR) at the University of Hong Kong. New-born Zmpste24^−/− mice and wild-type controls were fed with resveratrol (20 μg/ml) or N-acetyl Cysteine (1 mg/ml) in drinking water. The survival of resveratrol-treated, NAC-treated, or vehicle-treated Zmpste24^−/− mice was recorded and their body weight was monitored weekly. The trabecular bone organization and bone mineral density were determined by micro-CT. The survival rate was analyzed by Kaplan-Meier method and statistical comparison was performed by Log-rank (Mantel-Cox) Test.

Compound: Oc1ccc(C=Cc2cc(O)cc(O)c2)cc1 [resveratrol]
- binding of rhSIRT1 to rhLamin A [1]: enhanced the binding
- stimulating effect on expression of Gadd45α and catalase (Gadd45α and catalase; Zmpste24−/− BMSCs with SIRT1 knocked down): abolished the stimulating effect
- expression of Gadd45α and catalase (Gadd45α and catalase; Zmpste24−/− BMSCs, resveratrol 10 μM): increased
- bone mineral density (Zmpste24−/− mice): increased bone mineral density
- trabecular structural organization (Zmpste24−/− mice): improved the structural organization
- trabecular thickness (Zmpste24−/− mice): increased the trabecular thickness
